# Laboratory results as given in PubChem BioAssay (NCI).
#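 48-hour exposure; five concentrations; linearly interpolated endpoints. GI50 = concentration required for 50% inhibition of growth. TGI: total growth inhibition.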
# Columns and labels:
# Experiment in all cases: NCI-60 cell line screen, 48 h
# HOP-92 NSCLC = tested on: HOP-92 NSCLC
# RXF 393 renal = tested on: RXF 393 renal
# K-562 leukemia = tested on: K-562 leukemia
# SN12C renal = tested on: SN12C renal
# U251 CNS = tested on: U251 CNS
# LOX IMVI melanoma = tested on: LOX IMVI melanoma
# SK-MEL-28 melanoma = tested on: SK-MEL-28 melanoma
# SF-539 CNS = tested on: SF-539 CNS
SMILES,GI50 (HOP-92 NSCLC) [µM],TGI (HOP-92 NSCLC) [µM],GI50 (RXF 393 renal) [µM],TGI (RXF 393 renal) [µM],GI50 (K-562 leukemia) [µM],TGI (K-562 leukemia) [µM],GI50 (SN12C renal) [µM],TGI (SN12C renal) [µM],GI50 (U251 CNS) [µM],TGI (U251 CNS) [µM],GI50 (LOX IMVI melanoma) [µM],TGI (LOX IMVI melanoma) [µM],GI50 (SK-MEL-28 melanoma) [µM],TGI (SK-MEL-28 melanoma) [µM],GI50 (SF-539 CNS) [µM],TGI (SF-539 CNS) [µM]
COc1cccc(C2=C(c3cn(C)c4cccc(OC)c34)C(=O)NC2=O)c1,8.89,> 25,5.03,> 19,3.51,> 25,15.1,> 25,11.5,> 25,17.1,> 25,> 19.1,> 25,6.58,18.6
O=C(Nc1cc(-c2cccnc2)nc(NCCCN2CCOCC2)n1)c1cc(Br)cc(C(F)(F)F)c1,1.97,7.62,1.8,3.61,2.8,21.7,7.74,21.8,2.05,4.3,1.62,3.06,1.73,3.48,1.67,3.47
COC(=O)[C@]12CC[C@@H](C)[C@H](C)[C@@H]1C1=CC[C@@H]3[C@@]4(C)CC(=O)[C@H](OC(=O)c5ccco5)[C@@]5(C)COC(=C45)C[C@@]3(C)[C@]1(C)CC2,14.9,> 100,67.9,> 100,0.413,> 100,,,0.703,> 100,0.427,> 100,0.579,> 100,7.56,> 100
COc1ccc(-c2c(N)n[nH]c2-c2cc(OC)c(OC)c(OC)c2)cc1,0.499,> 100,0.239,0.74,0.043,> 100,0.635,> 100,0.276,> 100,0.528,> 100,5.57,> 100,0.202,0.865
CN(C)CCNc1nc2ccccc2c2c(=O)c3ccccc3sc12,1.68,6.73,1.51,4.11,1.52,3.77,2.13,8.85,2.25,6.01,1.37,2.8,2.08,3.98,1.78,3.58
O=C(NCCCCOCC#Cc1ccccc1C#CCS(=O)(=O)c1ccccc1)c1cc2ccccc2[nH]1,1.39,15.7,12.2,38.5,6.83,> 50,10,24.9,9.64,22,1.58,4.8,9.82,26.7,12.1,26.8
O=C1c2ccccc2-c2c1c1ccccc1c(=O)n2-c1ccccc1,,> 50.3,,15,,> 100,,> 100,,39.9,,> 100,,> 100,,12.3
CCOC(=S)SCN1C(=O)c2ccccc2S1(=O)=O,,,6.97,21.6,35.7,> 100,21,46.6,18.7,37.3,17.1,31.9,3.42,15,24.7,58.5
CCCn1c(N)c(C(=O)CNc2ccc(I)cc2)c(=O)[nH]c1=O,7.86,> 24.3,21.5,> 100,,> 100,29.2,> 100,0.761,> 48.9,0.653,> 100,> 100,> 100,0.84,> 45.6
COc1cc(/C=N\O)nc(-c2ccccn2)c1,,> 100,,> 100,,> 100,,,,> 100,,> 100,,> 100,,> 32.8
Cc1nnc(-c2ccc(-c3nc4ccccc4o3)cc2)o1,> 100,> 100,,,29.5,> 100,> 100,> 100,16.4,34.8,> 100,> 100,> 100,> 100,> 100,> 100
Cc1cc(O)cc2c1c(=O)c1ccccc1n2C,,93.6,,> 100,,,,> 100,,> 100,,> 100,,,,> 100
Cc1ncc([N+](=O)[O-])n1CCNC(=O)CCCCCn1ccnc1[N+](=O)[O-],,,,,,> 100,,> 100,,> 100,,,,,,> 100
O=C(CC(=O)c1ccccc1)c1ccccc1,15.8,51.3,22,88,8.31,> 100,52.8,> 100,2.15,8.05,,,31,> 100,4.5,16.2
Cc1cc(O)c(C(c2ccncc2)c2c(O)cc(C)[nH]c2=O)c(=O)[nH]1,,,,> 100,,> 100,,> 100,,> 100,,> 100,,> 100,,
N#Cc1cccc(OCc2ccccc2COc2cccc(C#N)c2)c1,2.36,15.4,,,64.5,> 100,19,73.1,19.4,43.4,,,> 100,> 100,18.8,35.5
Cc1ccc2c(c1)C(=O)c1c-2n(CCCN=[N+]=[N-])c(=O)c2cc([N+](=O)[O-])ccc12,30.2,> 100,> 100,> 100,39.4,> 100,59.4,> 100,,,33.2,> 100,> 100,> 100,> 100,> 100
O=c1c2c3c(sc2n2c(-c4ccc(Br)cc4)nnc2n1Cc1ccccc1)CCCC3,3.41,16.1,,,23.8,> 100,8.01,23.4,6.89,19.7,10.5,22.3,6.19,19.9,11.9,32.3
